Columns and labels:
[1] = system: Spontaneously Hypertensive Rats, middle cerebral artery occlusion (MCAo/stroke); experiment: Collateral and control hemisphere perfusion by laser speckle contrast imaging after MCAo (Examples 4 and 5); assay type: in vivo, rat; conditions: from 25 minutes after MCAo for 45 minutes
[2] = Mean arterial pressure through femoral artery catheter during infusion after MCAo (Examples 4 and 5); assay type: in vivo, rat; conditions: from 25 minutes after MCAo for 45 minutes
Procedure: Animals were randomized to receive intravenous infusion of saline (control, 0.3 ml/hr n=6) or infusion of free nitroglycerin (free-GTN, 0.25 μg/μl in saline, at 300 μl/h=4 μg/kg/min, n=6), commencing 25 minutes after MCAo.
Animals received intravenous infusion of free nitroglycerin (free-GTN, 2.5 μg/μl in saline, at 300 μl/h=40 μg/kg/min, n=4), commencing 25 minutes after MCAo. […] Vehicle control (saline) was the same control group used for 4 μg/kg/min studies (n=6).

[3] = system: Spontaneously Hypertensive Rats, middle cerebral artery occlusion (MCAo/stroke); conditions: FIG. 3
Procedure: Animal experiments were performed on male Spontaneously Hypertensive Rats (SHRs) weighing 300-350 g (Harlan, Bicester, UK). All animals were housed in a 12 h light/dark cycle and had ad libitum access to food and water prior to experiments.
Rats were anesthetized with 5% isoflurane in O2/N2 (1:3) and maintained with 1% to 2% isoflurane. Core temperature was maintained at 37° C. by a thermocouple rectal probe and warming plate (Harvard Apparatus, UK). Incision sites were shaved, cleaned, and injected subcutaneously with 2 mg/kg 0.05% Bupivacaine (Aspen, UK). A femoral arterial line was used for continuous arterial pressure monitoring.
The filament was advanced into the right external carotid artery stump and up the internal carotid artery to occlude the origin of the right MCA.
Laser Doppler flowmetry (LDF) (Oxford Optronix, Oxford, UK) was used to measure changes in cerebral blood flow (CBF) in both the MCA and collateral arterial territories using dual probes. The animal's head was secured with ear bars in a stereotaxic frame. […]
Prior to MCAo, the femoral vein was cannulated with 2-French silicon tubing. […] Collateral perfusion was measured as a change from pre-injection baseline.
Prior to MCAo, the femoral vein was cannulated with 2-French silicon tubing. […] Collateral perfusion was measured as a % change from pre-injection baseline.

[4] = system: patients suffering ultra-acute stroke; conditions: transdermal (i.e. systemic) delivery; cited from earlier work
[5] = i.v. infusion 4 μg/kg/min nitroglycerin

Question: For O=[N+]([O-])OCC(CO[N+](=O)[O-])O[N+](=O)[O-] [nitroglycerin], which “perfusion in the corresponding region of the control/contralateral hemisphere” value [1, 5] is on record?
Answer: The value was “no significant effect”.

Question: What about the “collateral blood perfusion (% change from pre-injection baseline)” value ([1]; i.v. infusion 4 μg/kg/min nitroglycerin, stroke hemisphere) of the same compound?
Answer: Its value is “did not change”.

Question: What about the “collateral blood perfusion (% change from pre-injection baseline)” value ([1]; i.v. infusion 40 μg/kg/min, FIG. 14) of the same compound?
Answer: Its value is “did not change”.

Question: And the “perfusion in the corresponding region of the control/contralateral hemisphere” value ([1]; i.v. infusion 40 μg/kg/min, FIG. 15)?
Answer: The value was “no significant effect”.

Question: And the “blood pressure (mean arterial pressure)” value [2, 5]?
Answer: The value was “dropped”.

Question: What about the “blood pressure (mean arterial pressure)” value ([2]; i.v. infusion 40 μg/kg/min, FIG. 16) of the same compound?
Answer: Its value is “significantly dropped”.

Question: What about the peak collateral perfusion ([3]; free nitroglycerin not delivered using a SA-NT, Example 3b) of the same compound?
Answer: The peak collateral perfusion was “only a modest increase”.

Question: And the “collateral perfusion with increasing doses” value ([3]; one SHR, i.v. bolus over 1 minute of 12.5, 25, 50 and 100 m, from 30 minutes after MCAo)?
Answer: The value was “no additional increase”.

Question: What about the functional outcome [4] of the same compound?
Answer: The functional outcome was “did not improve”.

Source: patent US20230355540A1, “STROKE TREATMENT” (Oxford University Innovation Limited, priority 2020, published 2023)
